Values after ≈ are worked out from the molar mass of the structure shown. Where two headings read alike, the source gives them in different places. Marks after values point to notes of the source that are not given here.
How the values were obtained:
[1] = system: NSAID-induced gastric damage in mice; experiment: Ulcerogenicity study (gastric lesion score); format: in vivo, CD1 mice; details: fasted mice, oral, parent 10 mg/kg or equimolecular prodrug, score 0 irritation, 1 lesions 1-2 mm, 2 lesions 2-3 mm, 3 lesions >3 mm; for Gastric Lesion Score (4 h): 4 h after treatment; for Gastric Lesion Score (48 h): 48 h after treatment
Procedure: NSAID-induced gastric damage in mice was evaluated following the procedure described by Chan et al.. […] The mucosa was then examined by means of a magnifying glass for the presence of irritation or frank hemorrhagic lesions (ulcers). Irritation was assigned a score of 0, and ulcerations were scored according to their length (a score of 1 for lesions with a length between 1 and 2 mm, a score of 2 for lesions with a length between 2 and 3 mm, a score of 3 for lesions greater than 3 mm). The sum of total scores was used for comparison.

[2] = Distribution coefficient n-octanol/PBS pH 7.4, shake-flask; format: physicochemical; details: room temperature, mean ± SD
Excerpt: Lipophilicity is the key physicochemical parameter that influences solubility and various other aspects of the pharmacokinetic and pharmacodynamic profile of drugs. The hydrophilic-lipophilic behavior of galactosylated prodrugs and parent drugs was investigated by measuring the distribution coefficients (log D^pH) in n-octanol-phosphate buffered saline (PBS, pH 7.4) using the shake-flask technique.
Each log D value is an average of a minimum of six measurements.

[3] = system: carrageenan-induced paw edema in mice; experiment: Carrageenan-induced paw edema / hyperalgesia; format: in vivo, CD1 mice; details: oral; parent drugs 10 mg/kg, equimolecular IbuGAL 17.8, IndoGAL 14.5, OkyGAL 16.4, FluGAL 16.7 mg/kg
Procedure: We tested the anti-inflammatory response of the parent drugs and their relative galactosylated prodrugs by subcutaneously injecting λ-carrageenan (1% (w/v) in sterile saline, 20 μL) into the hind paws of mice.
Figure 4 (a–d). […] White circles represent control mice treated with vehicle. […] The increase in paw volume was evaluated and is expressed as the difference in paw volume measured at each time point and the basal paw volume measured immediately before carrageenan injection. Data are expressed as means ± S.E.M. of 6 animals. *** p < 0.001, ** p < 0.01 and […] vs. Control.
Carrageenan-induced paw edema was induced by injecting λ-carrageenan (1% w/v in sterile water, 20 μL) subcutaneously into the hind paws of mice using a 27 gauge needle. […] The increase in paw volume was evaluated using a plethysmometer (Ugo Basile, Milan, Italy) and reported as the difference between the paw volume measured at each time point and the basal paw volume measured immediately before carrageenan injection.

[4] = Chemical stability in SGF (pH 1.2) and PBS (pH 7.4) at 37 °C; format: physicochemical; details: unmodified incubated compound, 100 µM, PBS pH 7.4, 37 °C, mean ± SD
Procedure: The concentrations of the galactosylated prodrugs and the parent drugs derived from the prodrugs were quantified using RP-HPLC (Table 2).
A 10 mM solution of each compound (the galactosylated prodrugs and their parent drugs) was added to either simulated gastric fluid (SGF-without pepsin) or phosphate-buffered saline (PBS, 50 mM). The SGF and PBS buffers were prepared as previously described.

[5] = Ex vivo permeation across excised rat small intestine (non-everted intestinal sac); format: in vitro ADME, male Wistar rats; details: compound filled into the sac, 5 mg/Kg in PBS + methocel 3%, 37 °C, 2 h; for Fraction Absorbed (Fa) ± SE, Duodenum: rat duodenum; for Fraction Absorbed (Fa) ± SE, Ileum: rat ileum; for Fraction Absorbed (Fa) ± SE, Jejunum: rat jejunum
Procedure: The permeability of the galactosylated prodrugs and the parent drugs through the rat small intestine was assessed ex vivo using the non-everted intestinal sac method. Despite some shortcomings (e.g., the interruption of normal blood flow, lack of a nervous system) this test is widely used to investigate the passive absorption of molecules and can provide further data when equipped with a mucus layer, which includes proteins of drug transport and metabolism.
A suspension of the tested compounds (5 mg/Kg in PBS + methocel 3%) was syringed into intestinal sacs that consisted of different segments of rat small intestine (duodenum, jejunum, ileum). The compound-enriched tissues were incubated at 37 °C for 2 h.
In order to verify the presence of the galactosylated compounds in the intestinal tissues, the intestinal sacs were opened at the end of the incubation period, washed with fresh buffer and homogenized in ethanol and the supernatant was dried. The concentrations of the galactosylated prodrugs and the prodrug-derived parent drugs were quantified using RP-HPLC (Figure 3a–d).
An evaluation of ex vivo absorption was carried out using permeation measurements in excised rat small intestines, as previously published, with some modifications. Briefly, male Wistar rats (200–250 g) were anesthetized with isoflurane, decapitated and exsanguinated. Freshly excised rat duodenum, jejunum and ileum tissue was washed with Krebs–Ringer buffer (KRB) and cut into pieces of 4–5 cm. Then, 0.2 mL of a suspension containing the compounds (5 mg/Kg, PBS + Methocel 3%) were syringed into intestinal sacs and the compound-enriched tissues were incubated in oxygenated KRB (10 mL) at 37 °C with smooth shaking. […] Tests were carried out in triplicate for each compound on three intestinal segments from three different rats. The concentration in the incubation buffer was quantified via RP-HPLC, as reported above.
At the end of the incubation period, the intestinal sacs were opened, washed with fresh buffer, homogenized in ethanol (1 mL, UltraTurrax) and centrifuged at 13,000× g for 5 min and the supernatant was dried with nitrogen. After resolubilization in 0.5 mL of methanol, the concentrations of the galactosylated prodrugs and prodrug-derived parent drugs were quantified using RP-HPLC.

[6] = Solubility assay at 25 °C (RP-HPLC); format: physicochemical; details: thermodynamic from solid
Procedure: The solubilities of the prodrugs and parent drugs were evaluated at 25 °C in water, simulated gastric fluid (SGF without pepsin, pH 1.2) and PBS (pH 7.4), which are the media used for chemical stability analyses. The solubilities were quantified using RP-HPLC.
Solubility was assessed in deionized water, SGF without pepsin (pH 1.2) and PBS (pH 7.4, 50 mM). The test solid compounds (5 mg) were added to 1 mL of water, PBS and SGF in glass tubes and shaken for 6 h at 25 °C. The suspensions were filtered through a PTFE 0.45 μm filter (VWR), and the resulting solutions were analyzed by means of RP-HPLC (see below). Experiments were performed in triplicate for each compound. Solubility is expressed as mM concentration.

[7] = system: acetic-acid-induced writhing in mice; experiment: Acetic-acid-induced writhing test; format: in vivo, CD1 mice; details: oral IbuGAL 17.8, IndoGAL 14.5, OkyGAL 16.4, FluGAL 16.7 mg/kg; 0.6% acetic acid i.p.; 48 h
Procedure: The number of acetic-acid-induced abdominal stretches can be evaluated in Figure 3. Control mice received an intraperitoneal injection of 0.6% acetic acid (10 mL/kg). […]
Figure 5 (a–d). Total number of writhing episodes within 20 min after acetic acid injection. […] Data are expressed as means ± S.E.M. of 6 animals. *** p < 0.001, ** p < 0.01 vs. Control.
The acetic-acid-induced writhing test was performed as reported previously. […] The number of abdominal constrictions and extensions of the trunk and hind limbs were counted for each group of mice, starting from 5 min after the injection of acetic acid up to 20 min afterwards, and expressed as the number of writhing episodes.

[8] = aqueous buffer, PBS pH 7.4 50 mM, 25 °C, read-out: Solubility at 25 °C, PBS pH 7.4
[9] = simulated gastric fluid, SGF without pepsin pH 1.2, 25 °C, LOQ (HPLC) = 1 µM, read-out: Solubility at 25 °C, SGF pH 1.2
[10] = deionized water, 6 h shaking, 25 °C, mean, SD < 0.01, read-out: Solubility at 25 °C, Water

Row | SMILES | Gastric Lesion Score (4 h) [1] | Gastric Lesion Score (48 h) [1] | logD [2] | effect on carrageenan-induced paw edema/hyperalgesia during the first phase (0–6 h) [3] | Stability at 37 °C, % compound after 24 h of incubation, PBS pH 7.4 [4] | Fraction Absorbed (Fa) ± SE, Duodenum [5] | Fraction Absorbed (Fa) ± SE, Ileum [5] | Fraction Absorbed (Fa) ± SE, Jejunum [5] | solubility at 6 h [6, 8] | solubility at 6 h [6, 9] | solubility at 6 h [6, 10] | writhing responses after 48 h vs control [7]
1 | CC(C)Cc1ccc(C(C)C(=O)OC[C@H]2OC(O)[C@H](O)[C@@H](O)[C@H]2O)cc1 (stereo partly drawn) [IbuGAL] | 0 ** | 1 | 1.73 ± 0.04 | did not change | 81.2 ± 2.5% | 0.013 ± 0.006 | 0.031 ± 0.016 | 0.026 ± 0.014 | 2930 µM (≈ 1080 µg/mL) | 2530 µM (≈ 932 µg/mL) | 1940 µM (≈ 715 µg/mL) | significant decrease
2 | CC(C(=O)OC[C@H]1OC(O)[C@H](O)[C@@H](O)[C@H]1O)c1ccc(-c2ccccc2)c(F)c1 (stereo partly drawn) [FluGAL] | 0 ** | 0.5 | 1.89 ± 0.09 | did not change | 87.3 ± 2.1% | 0.060 ± 0.014 | 0.033 ± 0.008 | 0.031 ± 0.015 | 1010 µM (≈ 410 µg/mL) | 1440 µM (≈ 585 µg/mL) | 5210 µM (≈ 2120 µg/mL) | significant decrease

— paper PMC9142922, “Galactosylated Prodrugs: A Strategy to Improve the Profile of Nonsteroidal Anti-Inflammatory Drugs” (Pharmaceuticals, 2022)
